Laboratory results as given in patent US6663881B2 (priority 1993, dated 2003).

Columns and labels:
[1] = test system: Vascular smooth muscle (BO54) cells; assay type: cell-based, baboon
[2] = test system: balloon traumatized left carotid artery; conditions: rat, in vivo
[3] = test system: balloon traumatized left carotid artery; experiment: Periadventitial delivery of taxol crystals in pluronic gel, balloon traumatized rat carotid artery; assay type: in vivo, rats
Experimental: To further evaluate the efficacy of crystalline taxol to inhibit neointimal formation in rats, four groups of 5-6 adult male rats underwent balloon trauma of the left carotid artery followed immediately by periadventitial delivery of 1, 0.1, 0.01 or 0 mg of taxol crystals in 500 mg of a pluronic polymer in gel matrix. Fourteen days later, the rats were sacrificed, serum was collected and their carotid arteries were processed for histologic and morphometric analysis.

[4] = test system: Vascular smooth muscle cells
[5] = test system: Vascular smooth muscle (BO54) cells; assay type: cell-based, baboon; remark: listed apart in the source
[6] = test system: balloon traumatized swine femoral arteries; experiment: Tissue distribution of crystalline 3H-cytochalasin B after local delivery; set-up: species or system Yorkshire crossbred swine; conditions: in vivo
Experimental: The in vivo tissue distribution of cytochalasin B administered in crystalline form was evaluated in balloon traumatized swine femoral arteries after local delivery. A femoral artery of a Yorkshire crossbred swine was balloon traumatized by overinflation and rotation of a Vascu-Flo™ Silicone embolectomy catheter. Balloon trauma was immediately followed by intravascular delivery of 10 μg/ml ^3H-cytochalasin B crystals (Sigma Chemical Co., St. Louis, Mo.) in saline (saturated) for three minutes under 1 atm of pressure. Blood flow was resumed in the artery for five minutes prior to sacrifice of the animal.

[7] = MTT activity in human liver slices after 24 hour exposure; assay type: cell-based
Experimental: The cytotoxity of ^3H-cytochalasin B and its subsequent metabolites was also assessed by evaluating dose dependent changes in mitochondrial function by monitoring 3-[4, 5-dimethylthiazol-2yl]-2, 5-diphenyltetrazolium bromide (MTT) activity following a 24 hour exposure of human liver slices to the test agent (Table 10).

[8] = Biodistribution of 3H-cytochalasin B i.v. (radioactivity); assay type: in vivo, BALB/c mice
Experimental: ^3H-cytochalasin B (2 μg; 30 μCi/μg) was injected i.v. into BALB/c mice having urinary bladders that had been externally ligated. Animals were sacrificed at 15 minutes, 30 minutes, 2 hours or 16 hours post-injection. Organs were removed, blotted, weighed, air dried and assayed for radioactivity. Fifty −73% of the total injected dose was accounted for in the tissues sampled (blood, heart, brain, muscle, bone, lung, liver, spleen, stomach, kidney, intestines, and urinary bladder). Clearance of ^3H-cytochalasin B from the blood was extremely rapid with less than 1% of the injected dose in circulation by 15 minutes.

[9] = Human liver slices distribution and metabolism study (HPLC); assay type: in vitro ADME
Experimental: ^3H-cytochalasin B at a dose of 1.5 or 8 μg/ml was mixed with viable or non-viable human liver slices and media, and the amount of ^3H-cytochalasin B in media or tissue assessed by HPLC (Tables 8 and 9).

[10] = Stability and metabolism in saline, human plasma and human whole blood (HPLC); assay type: in vitro ADME; conditions: 20 hours at 37° C.
Experimental: To determine the metabolism of ^3H-cytochalasin B in human blood, ^3H-cytochalasin B (8 μg/ml) was dissolved in saline; 1:1 dilution of saline and human plasma; or 1:1 dilution of saline and human whole blood.

[11] = 1.5 μg/ml, Media/viable tissue, 1 h
[12] = 1.5 μg/ml, Media/viable tissue, 1 h at 37° C.
[13] = 1.5 μg/ml, Media/viable tissue, 4 h
[14] = 8 μg/ml, Media/boiled tissue, 4 h
[15] = 8 μg/ml, Media/boiled tissue, 24 h

CC(=O)O[C@@H]1/C=C\[C@@](C)(O)C(=O)[C@@H](C)C/C=C\[C@H]2[C@H](O)C(C)=C(C)[C@H]3C(Cc4ccccc4)NC(=O)[C@]132 (stereo partly shown) [cytochalasin C]
MED, DNA synthesis assay [1]: 0.01 µg/mL

CC(=O)O[C@H]1C(=O)[C@@]2(C)[C@H]([C@H](OC(=O)c3ccccc3)[C@]3(O)C[C@H](OC(=O)[C@H](O)[C@@H](NC(=O)c4ccccc4)c4ccccc4)C(C)=C1C3(C)C)[C@]1(OC(C)=O)CO[C@@H]1C[C@@H]2O [taxol]
morphometry vs untreated controls [2]: statistically significantly larger luminal areas and no neointimal proliferation
post-surgical weight gain [2]: delay in post-surgical weight gain
neointimal area and neointimal/medial ratio vs control ([3]; 0.01 mg): reduction in their neointimal area and neointimal/medial ratio
toxicity ([3]; 0.01 mg): no
neointimal area and neointimal/medial ratio vs control ([3]; 0.1 mg): reduction in their neointimal area and neointimal/medial ratio
toxicity ([3]; 0.1 mg): minimal
toxicity ([3]; 1.0 mg): limited

Cc1ccc(C(=O)Nc2ccc(S(=O)(=O)O)c3cc(S(=O)(=O)O)cc(S(=O)(=O)O)c23)cc1NC(=O)c1cccc(NC(=O)Nc2cccc(C(=O)Nc3cc(C(=O)Nc4ccc(S(=O)(=O)O)c5cc(S(=O)(=O)O)cc(S(=O)(=O)O)c45)ccc3C)c2)c1 [suramin]
DNA synthesis inhibition compared with protein synthesis inhibition [1]: to a greater extent than they inhibited protein synthesis

O=[N+]([O-])OCC(CO[N+](=O)[O-])O[N+](=O)[O-] [nitroglycerin]
DNA synthesis inhibition compared with protein synthesis inhibition [1]: to a greater extent than they inhibited protein synthesis

CN[C@@H]1C[C@H]2O[C@@](C)([C@@H]1OC)n1c3ccccc3c3c4c(c5c6ccccc6n2c5c31)C(=O)NC4 [staurosporin]
cytotoxicity grade at in vitro effective dosage [4]: 2
minimum effective dose (MED), DNA assay [1]: 1 ng/mL
minimum effective dose (MED), protein synthesis assay [5]: 100 ng/mL

^3H-cytochalasin B
tissue localization [6]: localized predominantly to the adventitia
cytotoxicity of agent or its metabolites [7]: not cytotoxic
injected dose in circulation ([8]; by 15 minutes): less than 1%
tissues with significant retention of 3H activity ([8]; mouse, in vivo): Only liver, skeletal muscle and intestines showed significant retention
total reactivity in the tissue [9]: less than 20%
total reactivity present in the media [9]: greater than 80%
% Metabolized of Extractable Activity [9, 11]: 43.0%
% Non extractable Activity [9, 11]: 0.5%
% Activity in Media [9, 12]: 84%
% Activity in Tissue [9, 12]: 16%
% Activity in Media [9, 13]: 84%
% Activity in Tissue [9, 13]: 16%
% Metabolized of Extractable Activity [9, 13]: 77.0%
% Metabolized of Extractable Activity ([9]; 1.5 μg/ml, Media/viable tissue, 24 h): 98.7%
% Metabolized of Extractable Activity ([9]; 8 μg/ml, Media Only, 1 h): 5%
% Metabolized of Extractable Activity ([9]; 8 μg/ml, Media Only, 24 h): 5%
% Non extractable Activity ([9]; 8 μg/ml, Media/boiled tissue, 1 h): 0.5%
% Extractable Activity [9, 14]: 99.0%
% Metabolized of Extractable Activity [9, 14]: 5%
% Non extractable Activity [9, 14]: 1%
% Activity in Media [9, 15]: 87%
% Activity in Tissue [9, 15]: 13%
% Metabolized of Extractable Activity [9, 15]: 5%
% Non extractable Activity [9, 15]: 1.3%
% Metabolized of Extractable Activity ([9]; 8 μg/ml, Media/viable tissue, 1 h): 24.2%
% Metabolized of Extractable Activity ([9]; 8 μg/ml, Media/viable tissue, 4 h): 59.4%
% Metabolized of Extractable Activity ([9]; 8 μg/ml, Media/viable tissue, 24 h): 98.0%
metabolism ([10]; 8 μg/ml in 1:1 saline and human plasma): not metabolized
metabolism ([10]; 8 μg/ml in 1:1 saline and human whole blood): metabolized by human whole blood
metabolism ([10]; 8 μg/ml in saline): not metabolized
